This assay has as its system M. tuberculosis H37Rv growth inhibition, 7H9 media. The assay can be described thus: M. tuberculosis growth inhibition, HTS (AID 449762).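 On all read-outs here: bacterial growth assessed after seven days of incubation.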 The conditions noted are these: for IC90: measured here: IC90 growth inhibition.

Records with an inconclusive call do not appear. Some results are limits rather than exact numbers.

For `O=C(Nc1cc(N2CCOCC2)ncn1)NC1(C(F)(F)F)Oc2ccc(Cl)cc2O1` (stereo not given), the IC50 (commonly the concentration needed to halve the response being measured) was 11.8 µM and the IC90 (in general, the concentration needed for an effect of 90%) was 18.9 µM.
Take `[O-][n+]1c2ccccc2c2n1CCN1CCOC21c1ccc(Cl)cc1` (stereo not given): the half-inhibitory concentration (IC50) was 26.1 µM and the IC90 worked out at 68 µM.
`c1ccc(-c2c3ccccc3nc3[nH]c4ccccc4c23)cc1`: the IC50 was 63.1 µM and the IC90 is greater than 100 µM.
`Cc1[nH]n(-c2ccccc2)c(=S)c1C=NCCCN=Cc1c(C)[nH]n(-c2ccccc2)c1=S` showed a concentration for an effect of 90% (IC90) greater than 100 µM.
On to `Cc1cc2c(cc1C)/C(=N/NC(=O)c1ccccn1)CCC2`, for which the IC50 was 7.91 µM and the concentration for an effect of 90% (IC90) was determined as 23.2 µM.
With `COc1ccc(C2=NC(=O)/C(=C\c3cc(OC)c(OC)c(OC)c3)O2)cc1`, the IC50 is 5.71 µM and the IC90 turned out to be 49.3 µM.
Consider `Cc1ccc2c(c1)c(/C=C/c1cc[n+](C)cc1)c(C)n2C`, for which the IC50 is 5.13 µM and the IC90 came out at 6.8 µM.
`CCc1ccc(N=Nc2ccc(O)c3[nH]cnc23)cc1`: the IC50 was 15.4 µM and the IC90 is greater than 100 µM.
Regarding `CCCOP(=O)(OCCC)c1c([N+](=O)[O-])cc(C(F)(F)F)cc1[N+](=O)[O-]`, the IC50 was 3.88 µM and the 90% effect concentration (IC90) stood at 6.52 µM.
Regarding `O=C(CNC(=O)c1ccc(Cl)cc1)c1ccc(Cl)cc1`, the IC50 was 96.6 µM and the concentration for an effect of 90% (IC90) was greater than 100 µM.
For `CC(=O)OCC1O[C@@H](O[C@@H]2C[C@H]3C(C)(C)[C@H](OC(C)=O)CC[C@]3(C)[C@H]3CC[C@]45C[C@]4(CC[C@H]5[C@@H](C)C[C@@H](O)[C@H](O)C(C)(C)O)[C@@]32C)[C@H](O)[C@@H](O)[C@@H]1O` (stereo not given in full) the same measures were 30.7 µM and 39.6 µM.
With `O=C(/C(=C/c1ccc(Cl)cc1)c1nc2ccccc2[nH]1)c1cccs1`, the IC50 is 21.2 µM and the IC90 came to 42.7 µM.
On to `COC(=O)COc1ccc(-c2nn(C)c(=O)c3ccccc23)cc1`, for which the concentration for half-maximal inhibition (IC50) was 1.77 µM and the IC90 amounted to 27.5 µM.
Turning to `C=CCOc1ccc(C2C(C#N)=C(N)N(Nc3ccccc3)C3=C2C(=O)CC(C)(C)C3)cc1OC` (stereo not given), the IC50 is 30.1 µM and the IC90 is 68.2 µM.
As to `COc1cc(C#Cc2c(-c3cncn3C)n(C)c3ccc(-c4cnc(N5CCOCC5)nc4)cc23)cc(OC)c1`, the IC50 was 45.8 µM and the 90% effect concentration (IC90) was determined as 51.7 µM.
Take `COc1ccccc1-n1cc2c([N+](=O)[O-])cc([N+](=O)[O-])cc2n1`: the IC50 is less than 0.2 µM and the IC90 came out at 3.18 µM.
Turning to `CNc1ccc2oc(C[C@H]3O[C@@]4(CC[C@H]3C)O[C@H]([C@H](C)C(=O)c3ccc[nH]3)[C@H](C)C[C@H]4C)nc2c1C(=O)O`, the IC50 is 1.1 µM and the IC90 is 1.97 µM.
For the molecule `COc1ccc(COc2cc(-c3cccc(OC)c3)nc3ccc(NC(=O)c4ccc(OC)cc4)cc23)cc1`, the IC50 is 5.42 µM and the IC90 is greater than 100 µM.
For the molecule `Clc1ccc(NNc2ccnc3cc(Cl)ccc23)cc1`, the 50% inhibitory concentration (IC50) was 16.8 µM and the IC90 stood at 21.5 µM.
For `Nc1ccc(C(=O)OCCCc2nc3cc4ccccc4cc3[nH]2)cc1` the same measures were 45.6 µM and 51.7 µM.
`CCOC(=O)c1nn(-c2ccc(C)cc2)c2nc(Nc3ccccc3)cc(=O)n12`: the half-inhibitory concentration (IC50) was 4.1 µM and the IC90 is 12.7 µM.
Turning to `CCOc1ccc(NCc2cccn2-c2nnc(N3CCC(C(=O)NCCCN4C(C)CCCC4C)CC3)s2)cc1` (stereo not given), the 50% inhibitory concentration (IC50) is 71.9 µM and the IC90 stood at 90.9 µM.
For `O=C1c2ccccc2CC1Sc1nnc(-c2ccncc2)o1` (stereo not given) the same measures were 20.6 µM and 30 µM.
Consider `O=C(OCc1ccccc1)c1cccc(-c2nnn(Cc3ccccc3)n2)c1`, for which the half-maximal inhibitory concentration (IC50) was 67.7 µM and the IC90 is greater than 100 µM.
As for `Cc1cc(C2=NNC(=NC3CCCCC3)SC2)c(C)n1-c1c(C)n(C)n(-c2ccccc2)c1=O`, the IC50 is 88.2 µM and the IC90 is greater than 100 µM.
Regarding `CCC(C)N1CCC2(CC1)N=c1c(c3c4c5c(C)c(O)c3c(O)c1=NC(=O)C(C)=CC=C[C@H](C)[C@H](O)[C@@H](C)[C@@H](O)[C@@H](C)[C@H](OC(C)=O)[C@H](C)[C@@H](OC)C=CO[C@@](C)(O5)C4=O)N2` (stereo not given in full), the half-maximal inhibitory concentration (IC50) is less than 0.2 µM and the IC90 is less than 0.2 µM.
Take `CCC(=O)Nc1nc2ccccc2n1Cc1ccc(Cl)cc1`: the IC50 was less than 0.2 µM and the IC90 amounted to 4.92 µM.
In the same order, the values of `COCCOC(=O)c1ccc(NC(=O)COc2ccc([N+](=O)[O-])cc2)cc1` are 83 µM and greater than 100 µM.
With `Brc1ccc(-c2nc3ncccn3c2Nc2ccc3c(c2)OCCO3)o1`, the IC50 was 59.2 µM and the concentration for an effect of 90% (IC90) came out at 90.2 µM.
On to `Cc1cc(C)n(-c2ccc(C(=O)Oc3ccc4c(c3)OCO4)cc2)n1`, for which the IC50 is 4.02 µM and the IC90 was 13.3 µM.
For `Oc1ccc(Nc2nc(-c3ccc4ccccc4c3)cs2)cc1`, the IC50 is 42.9 µM and the IC90 was greater than 100 µM.
In the case of `C[C@]12C=CC(=O)C=C1CC[C@@H]1C2=CC[C@]2(C)[C@@H](C(=O)CN3CCN(c4cc(N5CCCC5)nc(N5CCCC5)n4)CC3)CC[C@@H]12`, the IC50 is 22.5 µM and the IC90 turned out to be 30.4 µM.
In the same order, the values of `O=C1Nc2ccc(Br)cc2/C1=C/C(=O)c1ccc2c(c1)OCO2` are 7.71 µM and 18.1 µM.
For `Cc1ccc(C(=O)c2oc3ccc(Cl)cc3c2NC(=O)CN2CCN(C)CC2)cc1` the same measures were 14.6 µM and 17.8 µM.
For `COCCCn1c(SCc2cccc(OC)c2)nc2cc(OC)c(OC)cc2c1=N`, the IC50 was 37 µM and the IC90 came out at 49 µM.
For `Cc1ccc(-n2cc(CN(C)Cc3nccn3C)c(-c3cccc(C)c3)n2)cc1` the same measures were 9.52 µM and 13.3 µM.
As for `CCOC(=O)/C(=N/Nc1ccc(OC)cc1)N1CCCc2ccccc21`, the IC50 is 78.1 µM and the IC90 was greater than 100 µM.
As for `O=C(Nc1nc2ccc(F)cc2s1)C1CCN(S(=O)(=O)c2cc([N+](=O)[O-])ccc2Cl)CC1`, the IC50 is 10.9 µM and the IC90 came out at 16 µM.
Regarding `COc1cc(C2c3cc4c(cc3C(OC3OC5COC(c6cccs6)OC5C(O)C3O)C3COC(=O)C23)OCO4)cc(OC)c1O` (stereo not given), the IC50 is 13.1 µM and the IC90 was determined as 29.5 µM.
For the molecule `O=c1oc(-c2cccs2)nc2c1cnn2-c1ccccc1`, the IC50 is 64.5 µM and the IC90 was greater than 100 µM.
For `O=C(C[C@@H]1C/C=C\C[C@H](NC(=O)OCC2c3ccccc3-c3ccccc32)C(=O)OC[C@H]2CCCN2C1=O)N[C@@H](CO)Cc1ccccc1` the same measures were 16.1 µM and 28.2 µM.
In the same order, the values of `C=C[C@]1(C)C[C@@H](OC(=O)CSCCN(CC)CC)[C@]2(C)C(C)CC[C@]3(CCC(=O)[C@H]32)[C@@H](C)[C@@H]1O` (stereo not given in full) are 4.03 µM and 7.7 µM.
For the molecule `Oc1ccccc1Nc1nc(NCc2ccccc2)c2ccccc2n1`, the IC50 is 16.1 µM and the IC90 is 21.1 µM.
Consider `O=C(NC(=S)Nc1cccc2cccnc12)c1ccccc1`, for which the IC50 is 14.7 µM and the IC90 was greater than 100 µM.
With `CN(CCCC1CCCC1)C(=O)CCc1nnc(-c2ccccc2)o1`, the IC50 was 7.31 µM and the IC90 amounted to 20.1 µM.
`CC(=O)O[C@H]1C[C@@]2(C)[C@@H](C[C@@H](O)[C@H]3[C@@]4(C)CC[C@@H](O)[C@@H](C)[C@@H]4CC[C@@]32C)/C1=C(\CCC=C(C)C)C(=O)O`: the IC50 was 1.6 µM and the IC90 turned out to be 4.42 µM.
`CCCc1ncc(CN2CCCC(C(=O)Nc3ccc(-c4cccc(OC)c4)cc3)C2)cn1` (stereo not given) gave a 90% effect concentration (IC90) greater than 100 µM.
On to `CCOC(=O)c1cc2cc3ccccc3cc2oc1=O`, for which the IC50 was 34 µM and the IC90 was greater than 100 µM.
Turning to `CC1(C)CC(=O)C2=C(C1)OC(N)=C([N+](=O)[O-])C2c1ccc(C#N)s1` (stereo not given), the IC50 is 62.2 µM and the concentration for an effect of 90% (IC90) is greater than 100 µM.
With `Cc1sc2ncnc(N3CCC(C(=O)N(CC(C)C)c4nc5ccccc5s4)CC3)c2c1C`, the 50% inhibitory concentration (IC50) is 84.5 µM and the IC90 is greater than 100 µM.
In the case of `CC(=O)/C(=C\Nc1ccc(OCc2ccccc2)cc1)c1ccccc1`, the IC50 is 2.28 µM and the IC90 worked out at 12.1 µM.
Take `CCCCCCOC(=O)C(C#N)c1nc2ccccc2nc1N1CCN(CC)CC1` (stereo not given): the IC50 is 20.1 µM and the IC90 was 29.7 µM.
Take `COc1ccc(CNC[C@@H](CCCCN(C)Cc2ccc(OC)cc2)N2C[C@H](c3ccccc3)N(CCc3ccc(Cl)c(Cl)c3)C(=O)C2=O)cc1`: the IC50 was 5.48 µM and the IC90 was found to be 8.71 µM.
Regarding `Oc1c(C(c2ccccc2Cl)N2CCCC2)ccc2cccnc12` (stereo not given), the IC50 was 14.1 µM and the IC90 amounted to 31.1 µM.
Take `CC(=O)c1c(N2CCCC2)[nH]c(-c2ccccc2)nc1=S`: the IC50 was 16.2 µM and the IC90 turned out to be 67.1 µM.
With `O=C(O)c1[nH]c(=O)[nH]c(=O)c1F`, the concentration for half-maximal inhibition (IC50) is 4.58 µM and the IC90 is 14.2 µM.
On to `O=C(CCC(=O)NC1CCCCCCC1)Nc1nnc(C(F)(F)F)s1`, for which the IC50 is 12 µM and the IC90 was found to be 13.9 µM.
For `O=c1c2c(-c3ccccc3)csc2ncn1/N=C/c1ccc(O)c([N+](=O)[O-])c1`, the IC50 is 13.5 µM and the IC90 came out at 52.9 µM.
On to `Cn1c(SCc2ccccc2)nc(N)c(N=O)c1=O`, for which the IC50 is 3.5 µM and the concentration for an effect of 90% (IC90) came to 20.8 µM.
With `Cc1ccc(S(=O)(=O)/N=C(\CCl)N2CCOCC2)cc1`, the IC50 is 6.44 µM and the IC90 stood at 14.9 µM.
For `CC(C)(C)OC(=O)NCCCCCc1nnc(SCc2ccc(F)cc2)o1`, the half-maximal inhibitory concentration (IC50) is 14.2 µM and the IC90 amounted to 48.2 µM.
With `COc1ccc(NCc2nc3ccccc3n2CCOc2ccccc2)cc1`, the 50% inhibitory concentration (IC50) was 44.8 µM and the IC90 amounted to 50.6 µM.
In the case of `COc1cccc(N2CCN(c3ncnc4c3[nH]c3ccccc34)CC2C)c1` (stereo not given), the IC50 was 24.2 µM and the IC90 turned out to be 35.5 µM.
Turning to `CC(C)OC(=O)/C(C#N)=C/c1ccc(-c2ccc(SC(F)F)cc2)o1`, the half-inhibitory concentration (IC50) was 5.28 µM and the IC90 came out at 16.8 µM.
As for `O=C(N/N=C\C=C\c1ccc([N+](=O)[O-])o1)c1cccs1`, the IC50 is 0.59 µM and the IC90 worked out at 0.92 µM.
In the same order, the values of `Cc1ccc2cc(C)c(N3CCN(c4ccccn4)CC3)nc2c1` are 29.7 µM and 46.3 µM.

The record behind these values is PubChem BioAssay AID449762 (Southern Research Specialized Biocontainment Screening …, 2010).
